Holding throughout (test): kinome screen (33PanQinase)
What all share (assay type): biochemical

The target in experiment [1] is T1, ABL1 (Homo sapiens, UniProt P00519).
T1 construct: purchased Reaction Biology Europe GmbH (formerly ProQinase)
The method, then: (§1) The Kinome Screening was performed by Reaction Biology Europe GmbH (http://reactionbiology.com; Freiburg i. Br., Germany).

Experiment [2] concerns the target T2, CAMK2B (Homo sapiens, UniProt Q13554).
T2 construct: purchased Reaction Biology Europe GmbH (formerly ProQinase)
The method, then:
as §1

In experiment [3] the target is T3, FGFR4 (Homo sapiens, UniProt P22455).
T3 construct: purchased Reaction Biology Europe GmbH (formerly ProQinase)
On the procedure:
as §1

In experiment [4] the target is T4, HCK (Homo sapiens, UniProt P08631).
T4 construct: purchased Reaction Biology Europe GmbH (formerly ProQinase)
On the procedure:
as §1

Experiment [5] has as its target T5, IKKε (Homo sapiens, UniProt Q14164).
T5 construct: purchased Reaction Biology Europe GmbH (formerly ProQinase)
T5 sequence (Q14164 1-716): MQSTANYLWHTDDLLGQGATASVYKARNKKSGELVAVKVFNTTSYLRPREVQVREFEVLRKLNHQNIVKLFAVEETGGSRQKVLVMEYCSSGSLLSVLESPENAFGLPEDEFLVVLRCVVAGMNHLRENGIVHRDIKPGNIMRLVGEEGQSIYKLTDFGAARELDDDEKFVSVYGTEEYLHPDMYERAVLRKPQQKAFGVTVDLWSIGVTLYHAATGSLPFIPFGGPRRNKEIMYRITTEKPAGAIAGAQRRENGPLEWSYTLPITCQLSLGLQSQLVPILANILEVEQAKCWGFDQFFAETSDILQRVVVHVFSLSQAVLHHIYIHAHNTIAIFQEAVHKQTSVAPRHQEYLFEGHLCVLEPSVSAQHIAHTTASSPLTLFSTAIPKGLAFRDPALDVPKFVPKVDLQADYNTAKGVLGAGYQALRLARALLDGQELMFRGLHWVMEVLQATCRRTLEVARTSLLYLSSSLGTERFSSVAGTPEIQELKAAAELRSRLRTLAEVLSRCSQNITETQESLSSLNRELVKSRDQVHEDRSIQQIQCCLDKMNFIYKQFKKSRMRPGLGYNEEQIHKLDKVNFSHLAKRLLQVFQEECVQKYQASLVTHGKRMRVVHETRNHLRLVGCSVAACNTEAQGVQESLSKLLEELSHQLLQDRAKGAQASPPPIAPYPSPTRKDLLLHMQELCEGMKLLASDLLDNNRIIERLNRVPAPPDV
The method, then: as §1

For experiment [6], the target named is T6, MAPKAPK2 (Homo sapiens, UniProt P49137).
T6 construct: purchased Reaction Biology Europe GmbH (formerly ProQinase)
The method, then: as §1

In experiment [7] the target is T7, MERTK (Homo sapiens, UniProt Q12866).
T7 construct: purchased Reaction Biology Europe GmbH (formerly ProQinase)
T7 sequence (Q12866 21-999): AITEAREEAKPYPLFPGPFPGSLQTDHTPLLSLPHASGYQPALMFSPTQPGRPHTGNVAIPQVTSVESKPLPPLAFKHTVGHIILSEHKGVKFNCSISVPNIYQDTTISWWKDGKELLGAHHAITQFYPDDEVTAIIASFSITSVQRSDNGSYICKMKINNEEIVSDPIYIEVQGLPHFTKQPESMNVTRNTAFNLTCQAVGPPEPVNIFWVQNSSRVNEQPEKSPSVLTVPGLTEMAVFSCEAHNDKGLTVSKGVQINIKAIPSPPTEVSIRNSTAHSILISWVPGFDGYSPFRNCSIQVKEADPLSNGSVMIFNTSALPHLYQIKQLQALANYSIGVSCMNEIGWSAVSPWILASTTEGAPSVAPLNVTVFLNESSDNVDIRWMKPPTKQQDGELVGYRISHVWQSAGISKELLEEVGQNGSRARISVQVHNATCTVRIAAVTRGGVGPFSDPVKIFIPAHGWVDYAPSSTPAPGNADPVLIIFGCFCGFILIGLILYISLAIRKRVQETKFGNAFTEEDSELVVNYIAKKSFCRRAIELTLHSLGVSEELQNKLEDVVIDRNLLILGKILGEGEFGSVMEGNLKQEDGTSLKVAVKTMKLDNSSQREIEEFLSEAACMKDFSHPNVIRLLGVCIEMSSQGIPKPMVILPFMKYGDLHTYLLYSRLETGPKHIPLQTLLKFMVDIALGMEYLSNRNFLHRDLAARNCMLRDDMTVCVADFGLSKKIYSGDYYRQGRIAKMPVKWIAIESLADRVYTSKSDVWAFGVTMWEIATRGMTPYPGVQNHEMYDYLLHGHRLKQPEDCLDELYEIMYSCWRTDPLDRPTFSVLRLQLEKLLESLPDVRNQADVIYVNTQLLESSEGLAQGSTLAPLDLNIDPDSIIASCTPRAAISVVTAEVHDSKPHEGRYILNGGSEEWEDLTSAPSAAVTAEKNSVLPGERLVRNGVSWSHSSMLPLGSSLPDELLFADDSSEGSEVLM
The method, then:
as §1

In experiment [8] the target is T8, PASK (Homo sapiens, UniProt Q96RG2).
T8 construct: purchased Reaction Biology Europe GmbH (formerly ProQinase)
The method, then: as §1

Experiment [9] deals with T9, SNARK (Homo sapiens, UniProt Q9H093).
T9 construct: purchased Reaction Biology Europe GmbH (formerly ProQinase)
T9 sequence (Q9H093 1-628): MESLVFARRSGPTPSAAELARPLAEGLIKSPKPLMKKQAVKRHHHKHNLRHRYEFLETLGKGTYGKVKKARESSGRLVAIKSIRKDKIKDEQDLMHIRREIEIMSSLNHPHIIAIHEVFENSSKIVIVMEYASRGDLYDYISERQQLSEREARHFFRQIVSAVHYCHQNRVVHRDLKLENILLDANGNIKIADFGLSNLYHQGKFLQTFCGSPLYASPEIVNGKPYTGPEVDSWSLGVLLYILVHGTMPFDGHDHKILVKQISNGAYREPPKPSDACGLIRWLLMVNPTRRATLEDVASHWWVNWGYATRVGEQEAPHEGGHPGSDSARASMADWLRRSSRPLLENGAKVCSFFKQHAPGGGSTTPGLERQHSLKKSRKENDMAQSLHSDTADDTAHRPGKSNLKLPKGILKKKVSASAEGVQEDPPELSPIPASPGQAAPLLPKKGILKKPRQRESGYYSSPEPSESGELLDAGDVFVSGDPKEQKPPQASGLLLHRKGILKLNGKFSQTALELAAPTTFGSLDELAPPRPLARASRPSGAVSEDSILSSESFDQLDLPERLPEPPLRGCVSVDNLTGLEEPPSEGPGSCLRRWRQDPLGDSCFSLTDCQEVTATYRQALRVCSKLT
On the procedure: as §1

In PMC11167047 (Cell Death Discovery, 2024) one finds residual kinase activity data, which are given here for two compounds.

The structures appear in SMILES notation.

T1 sequence (P00519 whole entry): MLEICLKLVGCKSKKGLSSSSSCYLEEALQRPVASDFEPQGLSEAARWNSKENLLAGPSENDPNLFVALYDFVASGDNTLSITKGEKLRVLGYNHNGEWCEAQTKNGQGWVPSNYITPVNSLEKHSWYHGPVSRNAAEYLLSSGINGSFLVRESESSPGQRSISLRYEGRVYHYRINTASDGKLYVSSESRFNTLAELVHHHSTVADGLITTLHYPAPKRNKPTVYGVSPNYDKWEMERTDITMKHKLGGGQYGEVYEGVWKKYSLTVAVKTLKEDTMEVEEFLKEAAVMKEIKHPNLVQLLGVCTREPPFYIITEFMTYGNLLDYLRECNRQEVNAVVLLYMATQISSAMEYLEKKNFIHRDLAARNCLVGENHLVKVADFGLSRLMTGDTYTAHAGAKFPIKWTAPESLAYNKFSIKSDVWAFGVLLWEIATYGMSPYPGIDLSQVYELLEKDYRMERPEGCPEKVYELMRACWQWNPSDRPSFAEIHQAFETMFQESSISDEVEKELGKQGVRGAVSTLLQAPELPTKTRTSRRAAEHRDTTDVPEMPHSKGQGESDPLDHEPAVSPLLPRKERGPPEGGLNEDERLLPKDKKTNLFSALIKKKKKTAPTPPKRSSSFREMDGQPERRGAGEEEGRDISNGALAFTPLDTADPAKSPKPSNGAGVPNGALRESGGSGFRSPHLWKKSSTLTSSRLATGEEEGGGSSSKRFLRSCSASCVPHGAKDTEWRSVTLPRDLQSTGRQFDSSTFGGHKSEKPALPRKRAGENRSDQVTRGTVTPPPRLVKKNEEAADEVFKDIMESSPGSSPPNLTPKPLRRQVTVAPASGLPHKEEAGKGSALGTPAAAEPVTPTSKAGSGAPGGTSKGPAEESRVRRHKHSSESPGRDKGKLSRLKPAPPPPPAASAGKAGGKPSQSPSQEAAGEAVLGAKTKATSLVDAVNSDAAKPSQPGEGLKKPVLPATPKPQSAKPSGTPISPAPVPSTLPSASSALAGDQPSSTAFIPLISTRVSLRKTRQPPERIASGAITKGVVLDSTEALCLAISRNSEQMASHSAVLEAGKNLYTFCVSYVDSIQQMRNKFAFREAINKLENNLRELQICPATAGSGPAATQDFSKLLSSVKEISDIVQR
T2 sequence (Q13554 whole entry): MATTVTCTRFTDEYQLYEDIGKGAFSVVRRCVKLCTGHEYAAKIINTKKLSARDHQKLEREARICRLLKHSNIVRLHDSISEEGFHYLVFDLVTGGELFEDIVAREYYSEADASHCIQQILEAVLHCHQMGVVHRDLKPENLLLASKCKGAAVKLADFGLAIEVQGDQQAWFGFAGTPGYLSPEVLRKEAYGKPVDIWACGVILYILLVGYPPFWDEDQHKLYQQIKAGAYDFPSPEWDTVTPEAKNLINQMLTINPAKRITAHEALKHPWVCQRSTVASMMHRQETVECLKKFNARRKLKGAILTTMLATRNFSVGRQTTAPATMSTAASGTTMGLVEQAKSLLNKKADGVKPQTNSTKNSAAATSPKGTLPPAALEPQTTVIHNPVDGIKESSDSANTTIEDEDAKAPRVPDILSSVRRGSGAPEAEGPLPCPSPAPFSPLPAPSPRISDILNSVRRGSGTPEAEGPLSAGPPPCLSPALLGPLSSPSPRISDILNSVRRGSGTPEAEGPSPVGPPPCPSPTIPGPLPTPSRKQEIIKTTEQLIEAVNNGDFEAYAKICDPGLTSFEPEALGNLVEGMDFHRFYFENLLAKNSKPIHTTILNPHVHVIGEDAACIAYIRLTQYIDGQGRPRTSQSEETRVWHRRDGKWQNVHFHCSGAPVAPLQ
T6 sequence (P49137 whole entry): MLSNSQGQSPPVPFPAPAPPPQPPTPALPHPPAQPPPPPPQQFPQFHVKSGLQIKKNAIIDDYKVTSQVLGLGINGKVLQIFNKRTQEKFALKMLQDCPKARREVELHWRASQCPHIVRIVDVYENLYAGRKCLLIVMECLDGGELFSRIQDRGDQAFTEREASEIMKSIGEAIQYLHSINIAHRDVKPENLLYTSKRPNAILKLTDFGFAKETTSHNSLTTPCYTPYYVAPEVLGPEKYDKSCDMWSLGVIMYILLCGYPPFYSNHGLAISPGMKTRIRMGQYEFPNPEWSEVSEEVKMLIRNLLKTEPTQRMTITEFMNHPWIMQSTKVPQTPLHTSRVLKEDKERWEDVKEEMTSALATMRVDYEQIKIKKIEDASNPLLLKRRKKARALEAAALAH
T8 sequence (Q96RG2 whole entry): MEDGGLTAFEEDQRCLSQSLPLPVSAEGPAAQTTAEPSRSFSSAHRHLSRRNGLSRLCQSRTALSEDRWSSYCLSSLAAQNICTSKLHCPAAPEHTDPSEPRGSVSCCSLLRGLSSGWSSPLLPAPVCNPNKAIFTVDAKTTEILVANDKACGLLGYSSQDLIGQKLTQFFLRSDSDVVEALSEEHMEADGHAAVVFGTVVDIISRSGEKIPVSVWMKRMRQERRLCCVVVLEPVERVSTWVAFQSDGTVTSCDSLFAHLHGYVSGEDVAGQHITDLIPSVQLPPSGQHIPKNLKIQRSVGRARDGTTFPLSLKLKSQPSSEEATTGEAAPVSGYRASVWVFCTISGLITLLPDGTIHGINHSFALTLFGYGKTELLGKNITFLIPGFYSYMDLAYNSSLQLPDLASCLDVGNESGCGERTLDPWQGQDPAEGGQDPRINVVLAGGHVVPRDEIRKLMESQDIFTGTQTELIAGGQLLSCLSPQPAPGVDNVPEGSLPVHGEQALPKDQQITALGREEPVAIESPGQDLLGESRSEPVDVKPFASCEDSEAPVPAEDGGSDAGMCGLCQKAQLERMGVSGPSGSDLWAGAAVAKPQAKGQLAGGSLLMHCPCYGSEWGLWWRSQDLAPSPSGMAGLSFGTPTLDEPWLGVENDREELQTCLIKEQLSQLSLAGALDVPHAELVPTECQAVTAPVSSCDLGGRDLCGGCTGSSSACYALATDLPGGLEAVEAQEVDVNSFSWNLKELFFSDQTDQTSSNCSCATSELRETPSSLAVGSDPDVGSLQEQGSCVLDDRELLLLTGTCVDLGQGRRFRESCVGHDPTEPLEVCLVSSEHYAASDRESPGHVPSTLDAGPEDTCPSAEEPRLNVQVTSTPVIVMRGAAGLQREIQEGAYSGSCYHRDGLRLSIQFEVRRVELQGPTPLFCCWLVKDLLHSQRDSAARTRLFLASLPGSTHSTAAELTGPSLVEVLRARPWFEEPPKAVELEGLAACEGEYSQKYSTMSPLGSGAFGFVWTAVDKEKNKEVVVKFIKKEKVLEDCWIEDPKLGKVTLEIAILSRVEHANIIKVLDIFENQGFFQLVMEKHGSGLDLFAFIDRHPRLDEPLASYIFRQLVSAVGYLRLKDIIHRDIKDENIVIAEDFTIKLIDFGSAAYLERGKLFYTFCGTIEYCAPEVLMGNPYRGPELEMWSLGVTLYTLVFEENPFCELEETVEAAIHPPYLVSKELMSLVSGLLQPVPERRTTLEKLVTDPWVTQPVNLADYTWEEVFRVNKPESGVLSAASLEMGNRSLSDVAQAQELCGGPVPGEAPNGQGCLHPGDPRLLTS
T4 sequence (P08631 whole entry): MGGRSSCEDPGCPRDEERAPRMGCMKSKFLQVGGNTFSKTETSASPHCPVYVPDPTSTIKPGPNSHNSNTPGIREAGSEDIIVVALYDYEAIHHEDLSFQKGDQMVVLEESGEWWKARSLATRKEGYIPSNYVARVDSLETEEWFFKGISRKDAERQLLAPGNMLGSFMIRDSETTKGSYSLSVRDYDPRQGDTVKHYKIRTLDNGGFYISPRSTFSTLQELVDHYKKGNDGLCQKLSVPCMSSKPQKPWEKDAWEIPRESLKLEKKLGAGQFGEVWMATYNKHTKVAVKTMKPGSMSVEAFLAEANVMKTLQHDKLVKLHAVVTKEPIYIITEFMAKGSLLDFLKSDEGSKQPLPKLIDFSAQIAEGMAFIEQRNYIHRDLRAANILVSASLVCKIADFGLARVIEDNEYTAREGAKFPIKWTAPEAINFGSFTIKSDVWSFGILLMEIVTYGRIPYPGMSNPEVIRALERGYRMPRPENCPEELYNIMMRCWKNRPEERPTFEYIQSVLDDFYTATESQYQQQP
T3 sequence (P22455 22-802): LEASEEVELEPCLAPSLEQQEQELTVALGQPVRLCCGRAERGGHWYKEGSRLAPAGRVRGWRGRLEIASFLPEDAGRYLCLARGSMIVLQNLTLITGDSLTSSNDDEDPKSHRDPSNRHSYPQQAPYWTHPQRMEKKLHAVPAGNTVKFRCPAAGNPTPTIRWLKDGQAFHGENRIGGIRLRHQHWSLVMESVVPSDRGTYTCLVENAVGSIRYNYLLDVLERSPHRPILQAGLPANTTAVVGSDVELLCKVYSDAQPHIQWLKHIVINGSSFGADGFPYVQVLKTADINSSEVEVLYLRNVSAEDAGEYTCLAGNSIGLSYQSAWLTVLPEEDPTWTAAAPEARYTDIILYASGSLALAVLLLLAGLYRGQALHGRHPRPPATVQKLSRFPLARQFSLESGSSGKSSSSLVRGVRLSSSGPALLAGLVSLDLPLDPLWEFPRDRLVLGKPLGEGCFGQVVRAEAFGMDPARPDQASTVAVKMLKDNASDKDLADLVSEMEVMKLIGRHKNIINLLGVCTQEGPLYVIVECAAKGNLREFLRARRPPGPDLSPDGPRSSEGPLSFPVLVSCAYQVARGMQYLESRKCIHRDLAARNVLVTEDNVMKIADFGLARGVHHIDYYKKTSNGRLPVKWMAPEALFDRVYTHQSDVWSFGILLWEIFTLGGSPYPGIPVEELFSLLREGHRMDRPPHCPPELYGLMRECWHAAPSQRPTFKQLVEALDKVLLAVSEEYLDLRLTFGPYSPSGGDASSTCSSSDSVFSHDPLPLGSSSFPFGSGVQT

As to `c1ccc(CNc2cc(-c3c[nH]c4ncccc34)ccn2)cc1` [meriolin 36], the residual kinase activity in experiment [1] (0.3 µM) is 80 % of control; in experiment [1] (3 µM) it was 26 % of control; in [2] (0.3 µM), 83 % of control; in experiment [2] (3 µM), 31 % of control; in experiment [3] (0.3 µM) it was 98 % of control; in experiment [3] (3 µM) it was 58 % of control. The residual kinase activity in [4] (0.3 µM) is recorded as 75 % of control; in experiment [4] (3 µM), 25 % of control; in experiment [5] (0.3 µM), 40 % of control; in experiment [5] (3 µM), 6 % of control; in experiment [6] (0.3 µM) it was 130 % of control; in experiment [6] (3 µM), 87 % of control. The residual kinase activity was 69 % of control in experiment [7] (0.3 µM); 36 % of control in experiment [7] (3 µM); 3 % of control in [8] (0.3 µM); 0 % of control in experiment [8] (3 µM); 30 % of control in experiment [9] (0.3 µM); 5 % of control in [9] (3 µM).

For `COc1ccnc2[nH]cc(-c3cc(N)nc(N)c3)c12` [meriolin 16], the residual kinase activity in experiment [1] (0.03 µM) is given as 103 % of control; in experiment [1] (0.3 µM), 99 % of control; in experiment [2] (0.03 µM), 103 % of control; in experiment [2] (0.3 µM), 74 % of control; in [3] (0.03 µM), 91 % of control; in [3] (0.3 µM) it was 87 % of control. In addition, the residual kinase activity in [4] (0.03 µM) is on record as 106 % of control; in experiment [4] (0.3 µM) it was 81 % of control; in experiment [5] (0.03 µM), 94 % of control; in [5] (0.3 µM), 61 % of control; in experiment [6] (0.3 µM) it was 95 % of control; in experiment [7] (0.03 µM) it was 97 % of control. Further, the residual kinase activity in experiment [7] (0.3 µM) was 86 % of control; in [8] (0.03 µM), 82 % of control; in experiment [8] (0.3 µM), 39 % of control; in experiment [9] (0.03 µM) it was 99 % of control; in experiment [9] (0.3 µM) it was 64 % of control.
